Measurements published in ChEMBL document CHEMBL1145319, “Modeling and synthesis of non-cyclic derivatives of GPI-1046 as potential FKBP ligands with neurotrophic properties” (Bioorg Med Chem Lett, 2006).

Columns and labels:
[1] = target: T1, Peptidyl-prolyl cis-trans isomerase FKBP4 (Homo sapiens) (UniProt Q02790); assay: Neurotrophic activity in chick dorsal root ganglion at 1 pM in presence of NGF after 48 hrs relative to control; format: functional, tissue-based; conditions: Gallus gallus, target entry is the homologue from another species
T1 sequence (whole entry): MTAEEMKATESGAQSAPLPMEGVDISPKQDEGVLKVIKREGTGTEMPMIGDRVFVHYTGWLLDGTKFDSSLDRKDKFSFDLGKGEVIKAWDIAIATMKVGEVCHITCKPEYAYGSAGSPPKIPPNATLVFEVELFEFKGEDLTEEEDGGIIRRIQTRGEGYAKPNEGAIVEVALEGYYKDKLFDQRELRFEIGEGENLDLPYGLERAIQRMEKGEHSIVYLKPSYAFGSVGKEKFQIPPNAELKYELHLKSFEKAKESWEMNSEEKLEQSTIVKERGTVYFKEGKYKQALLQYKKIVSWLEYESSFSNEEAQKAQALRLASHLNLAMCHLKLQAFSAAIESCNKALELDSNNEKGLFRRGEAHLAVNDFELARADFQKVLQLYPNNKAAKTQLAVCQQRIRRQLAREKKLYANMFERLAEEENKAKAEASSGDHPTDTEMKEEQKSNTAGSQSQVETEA

[2] = target: T1, Peptidyl-prolyl cis-trans isomerase FKBP4 (Homo sapiens); assay: Neurotrophic activity in chick dorsal root ganglion at 100 pM in presence of NGF after 48 hrs relative to control; format: functional, tissue-based; conditions: Gallus gallus, target entry is the homologue from another species

Activity [1] [%]	Activity [2] [%]	SMILES
108	93	CC(C)C[C@H](NC(=O)C(=O)C(C)(C)C)C(=O)OCCCOc1ccccc1
39	117	CCC(C)(C)C(=O)C(=O)N[C@H](C(=O)OCCCc1ccccc1)C(C)C
100	120	CCC(C)(C)C(=O)C(=O)N[C@H](C(=O)OCCCc1cccnc1)C(C)C
136	45	CC(C)[C@H](NC(=O)C(=O)C(C)(C)C)C(=O)OCCCC1CCCCC1
129	65	CC(C)C[C@H](NC(=O)C(=O)C(C)(C)C)C(=O)OCCCc1cccnc1
65	78	CC(C)[C@H](NC(=O)C(=O)C(C)(C)C)C(=O)OCCCc1ccccc1
115	136	CC(C)[C@H](NC(=O)C(=O)C(C)(C)C)C(=O)OCCCc1cccnc1
85	93	CC(C)[C@H](NC(=O)C(=O)C(C)(C)C)C(=O)OCCCOc1ccccc1
–	120	CCC(C)(C)C(=O)C(=O)N1CCC[C@H]1C(=O)OCCCc1cccnc1
73	92	CC(C)C[C@H](NC(=O)C(=O)C(C)(C)C)C(=O)OCCCc1ccccc1
123	207	CCC(C)(C)C(=O)C(=O)N[C@H](C(=O)OCCc1ccccc1C(F)(F)F)C(C)C
123	101	CC(C)C[C@H](NC(=O)C(=O)C(C)(C)C)C(=O)OCCCC1CCCCC1
